The source of these data is PubChem BioAssay (NCI).

Common to all, as to assay: NCI tumour cell line growth inhibition, 48 h
The subject of experiment [1] is SNB-19 CNS.
Experiment [2] has as its system RXF 393 renal.
The subject of experiment [3] is SK-MEL-28 melanoma.
Experiment [4] deals with SR leukemia.
The subject of experiment [5] is SK-MEL-2 melanoma.
For experiment [6], the system named is SF-539 CNS.
Experiment [7] concerns SF-295 CNS.
The subject of experiment [8] is TK-10 renal.
Experiment [9] concerns MCF7 breast.
The test system of experiment [10] is SF-268 CNS.
Experiment [11] deals with SK-MEL-5 melanoma.
For experiment [12], the system named is SN12C renal.
For experiment [13], the system named is MDA-N.
The subject of experiment [14] is NCI-H522 lung.
Experiment [15] deals with HCT-116 colon.
Experiment [16] has as its system OVCAR-4 ovarian.
For experiment [17], the system named is T-47D breast.

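Step 1: Grow cells in 96-well plates. Step 2: Expose to compound for 48 hours at 5 concentrations. Step 3: Interpolate endpoints linearly; if unreached, use highest concentration. TGI denotes the concentration required for complete inhibition of growth.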

As for `CCCCCCOc1ccc(C(=O)NOCc2ccccc2)cc1`, the TGI in [1] was more than 100 µM; in [2] it was more than 100 µM; in experiment [3], more than 100 µM; in experiment [4], 67.4 µM; in [5], more than 100 µM; in experiment [6], more than 100 µM. For the same compound, the TGI in experiment [7], in experiment [8], in [9], in experiment [10], in experiment [11] and in [12] was more than 100 µM each time. The TGI in experiment [13], in experiment [14], in experiment [15] and in experiment [16] was more than 100 µM each time.

On to `Nc1c(-c2nc3ccccc3s2)c2ccc([N+](=O)[O-])cc2c(=O)n1-c1cccc(C(=O)O)c1`, for which the TGI in experiment [1] was 52 µM; in experiment [3] it was 59.8 µM; in experiment [4], 44.1 µM; in experiment [5], 75.4 µM; in experiment [8], 52.3 µM; in [10], more than 100 µM. Also, the TGI in experiment [11] is more than 100 µM; in experiment [12], 84.2 µM; in experiment [13], more than 100 µM; in experiment [17] it was 64.1 µM; in experiment [14], more than 100 µM; in experiment [15], 45.1 µM. Moreover, the TGI in experiment [16] was more than 100 µM.

As to `COc1ccc2nc3cccc([N+](=O)[O-])c3c(NCCO)c2c1`, the TGI in experiment [1] was determined as 0.875 µM; in experiment [2], 0.0274 µM; in experiment [3] it was 0.0626 µM; in [5], 0.0368 µM; in experiment [6], 0.052 µM; in experiment [7], 1.03 µM. Also, the TGI in [8] is 0.142 µM; in [9], 0.296 µM; in experiment [10], 0.111 µM; in experiment [11] it was 0.0614 µM; in experiment [12], 0.0792 µM; in experiment [13], 0.0234 µM. The TGI in experiment [17] was 0.805 µM; in experiment [14] it was 0.043 µM; in [15], 0.00545 µM; in experiment [16] it was 0.153 µM.

Consider `O=C1NC(Cc2c[nH]c3ccccc23)C(=O)N2C(C3CCCCC3)c3[nH]c4ccccc4c3C[C@@H]12` (some centres undefined), for which the TGI is more than 100 µM in [1]; 21.2 µM in experiment [2]; 44.4 µM in [3]; 34 µM in [4]; 32.2 µM in experiment [5]; 43.5 µM in experiment [7]. In addition, the TGI in [8] is 37.6 µM; in [9], more than 100 µM; in experiment [10], 49.3 µM; in [11] it was 25.4 µM; in experiment [12] it was 20.8 µM; in [13], 25.2 µM. Further, the TGI was 28.6 µM in experiment [14], 22.1 µM in experiment [15] and more than 100 µM in experiment [16].

As to `O=C(O)C1CCCN1Cc1cc2ccccc2c2ccccc12` (centres undefined), the TGI in [1], in experiment [2], in experiment [3], in [5], in experiment [6] and in experiment [7] was more than 100 µM in each case. Also, the TGI in experiment [8], in experiment [9], in experiment [10], in [11], in experiment [12] and in experiment [13] was more than 100 µM in each case. In addition, the TGI in experiment [17], in [14], in experiment [15] and in experiment [16] was more than 100 µM in each case.

In the case of `CC(=O)OCC1OC(n2c3c(c(-c4ccco4)c(C#N)c2=S)CCC3)C(OC(C)=O)C(OC(C)=O)C1OC(C)=O` (centres undefined), the TGI was more than 100 µM in experiment [1]; 86.9 µM in [2]; more than 100 µM in [3]; more than 100 µM in [4]; more than 100 µM in [5]; more than 100 µM in experiment [6]. In addition, the TGI in experiment [7], in experiment [8], in experiment [9], in experiment [10], in experiment [11] and in [12] was more than 100 µM throughout. Besides, the TGI in experiment [13], in experiment [15] and in experiment [16] was more than 100 µM each time.

As for `CC(N)C(C)Cc1ccccc1` (centres undefined), the TGI in experiment [1], in [2], in experiment [3], in experiment [7], in [8] and in experiment [9] was more than 100 µM throughout. Moreover, the TGI in experiment [10], in experiment [11], in [12], in [13], in experiment [17] and in experiment [14] was more than 100 µM throughout. The TGI in [15] and in experiment [16] was more than 100 µM each time.

With `CCCc1c(OC)c(=O)c2c(OC)cc(OC)c3c4c(OC)cc(OC)c5c(=O)c(OC)c(CCC)c(c1c23)c54`, the TGI in experiment [1] was found to be 34.6 µM; in experiment [2] it was 69.1 µM; in [3], 26.2 µM; in [5] it was 49.8 µM; in experiment [6], 30.9 µM; in [7] it was 33.1 µM. The TGI in experiment [8] worked out at 36.8 µM; in experiment [9], 46.6 µM; in [10] it was 41.5 µM; in [11], 22.6 µM; in [12], 50.4 µM; in experiment [13], 32.9 µM. The TGI turned out to be 20.6 µM in experiment [17], 28 µM in experiment [15] and 28.4 µM in [16].

Consider `Cn1c(=O)cc(NCc2ccc(Cl)cc2)[nH]c1=O`, for which the TGI in experiment [1], in experiment [2], in experiment [3], in [5], in [6] and in experiment [7] was more than 100 µM in each case. In addition, the TGI in experiment [8] is more than 100 µM; in experiment [9], more than 100 µM; in [10], 69.1 µM; in [11] it was more than 100 µM; in experiment [12] it was more than 100 µM; in experiment [13], more than 100 µM. Also, the TGI in experiment [17], in experiment [14], in experiment [15] and in experiment [16] was more than 100 µM throughout.

As to `Clc1ccc(Oc2ccc(N=Cc3ccc(Cl)cc3Cl)cc2Cl)cc1`, the TGI in experiment [1] is more than 100 µM; in [3], more than 100 µM; in experiment [5], more than 100 µM; in experiment [6], 65.1 µM; in [7], more than 100 µM; in [8] it was more than 100 µM. Further, the TGI in [9] was more than 100 µM; in experiment [10], more than 100 µM; in experiment [11], more than 100 µM; in [12], more than 100 µM; in experiment [13] it was 33.7 µM; in experiment [17], more than 100 µM. The TGI is 92 µM in [14], more than 100 µM in experiment [15] and more than 100 µM in experiment [16].

For the compound `CC(C)NC(=O)CN1CCN(C2=CC(=O)c3c(O)ccc(O)c3C2=O)CC1`, the TGI stood at 37.2 µM in experiment [1]; 33.2 µM in experiment [2]; 31.6 µM in experiment [3]; 34.3 µM in [5]; 30.5 µM in experiment [6]; 32.6 µM in experiment [7]. Also, the TGI in [8] is 31.5 µM; in experiment [9], 9.35 µM; in experiment [10] it was 53.1 µM; in experiment [11] it was 7.78 µM; in [12], 29.1 µM; in experiment [13], 16.3 µM. Also, the TGI in experiment [17] amounted to 24.7 µM; in [14], 34.5 µM; in experiment [15], 9.79 µM; in [16], 20.3 µM.

For `COc1ccc(C2SCC(=O)N2c2ccc(-n3c(-c4ccccc4)nc4ccccc4c3=O)cc2)cc1OC` (centres undefined), the TGI in [1], in [3], in experiment [4], in experiment [5], in experiment [6] and in experiment [7] was more than 100 µM each time. Moreover, the TGI in experiment [8], in [9], in experiment [10], in [11], in [12] and in [13] was more than 100 µM in each case. The TGI in experiment [17], in experiment [14] and in [15] was more than 100 µM in each case.

For `CC1OC(OC2C(O[C@H]3CC[C@@]4(C)[C@@H](CC[C@@H]5[C@@H]4CC[C@]4(C)[C@@H]6[C@H](C[C@@H]54)O[C@]4(CC[C@@H](C)CO4)[C@H]6C)C3)OC(CO)C(OC3OC(CO)C(O)C(OC4OCC(O)C(O)C4O)C3OC3OCC(O)C(O)C3O)C2O)C(O)C(O)C1O` (some centres undefined), the TGI in [1] was determined as 2.33 µM; in experiment [2] it was 1.85 µM; in [3] it was 2.04 µM; in experiment [5], 2.27 µM; in experiment [6] it was 1.25 µM; in experiment [7], 1.93 µM. The TGI was determined as 0.914 µM in experiment [9]; 3.37 µM in [10]; 36.3 µM in [13]; 1.02 µM in experiment [15]; 2.89 µM in experiment [16].

Consider `COc1ccc(N=C(C)c2ccncc2)cc1`, for which the TGI is more than 100 µM in experiment [1]; more than 100 µM in experiment [2]; more than 100 µM in experiment [3]; more than 100 µM in experiment [5]; 61.4 µM in experiment [6]; more than 100 µM in [7]. The TGI in experiment [8], in experiment [9], in [10], in [11], in experiment [12] and in [13] was more than 100 µM in each case. Also, the TGI in experiment [17], in [14], in [15] and in experiment [16] was more than 100 µM in each case.

On to `Cc1ccc(-c2c(C#N)c(S)n(NS(=O)(=O)c3ccc(C)cc3)c(=O)c2C#N)cc1`, for which the TGI in [1] was 52.1 µM; in experiment [2], 97.5 µM; in experiment [3] it was 61.2 µM; in [4], more than 100 µM; in experiment [5], 62.2 µM; in [6] it was 43.2 µM. In addition, the TGI was 51.3 µM in [7]; 50.5 µM in experiment [8]; more than 100 µM in [9]; 49.2 µM in experiment [11]; more than 100 µM in experiment [12]; more than 100 µM in experiment [13]. In addition, the TGI in experiment [14] was 48.1 µM; in experiment [15], 90.9 µM; in [16] it was 36.4 µM.

As for `CC1=C2C(=O)[C@H]3[C@@H](CC=C4C[C@@H](O)CC[C@@]43C)[C@@H]2CC[C@]12O[C@@H]1C[C@H](C)CN[C@H]1[C@H]2C`, the TGI was more than 57.6 µM in [1]; more than 53 µM in experiment [2]; more than 92.1 µM in [3]; more than 72.5 µM in experiment [5]; more than 61.6 µM in experiment [6]; more than 58.7 µM in experiment [7]. Also, the TGI in experiment [8] is more than 53.8 µM; in experiment [9], more than 100 µM; in experiment [10], more than 66.7 µM; in experiment [11], more than 61.9 µM; in experiment [12], more than 60.6 µM; in experiment [13], more than 100 µM. Also, the TGI in [17] was more than 100 µM; in experiment [14], more than 59.6 µM; in [15], more than 68.5 µM; in [16], more than 64.5 µM.

`O=C(CC(=O)N1N=C(N2CCCCC2)CC1c1ccccc1)Nc1ccc(Cl)cc1` (centres undefined): the TGI in [1], in experiment [3], in experiment [5], in [7], in [8] and in experiment [9] was more than 100 µM each time. The TGI in experiment [10], in experiment [11], in [12], in [13], in [17] and in experiment [14] was more than 100 µM throughout. The TGI in [15] and in experiment [16] was more than 100 µM throughout.

Take `COc1cc(-c2oc3c(OC)c(O)c(OC)c(O)c3c(=O)c2OC)cc(O)c1OC`: the TGI was more than 100 µM in [1]; 79.4 µM in experiment [2]; more than 100 µM in experiment [3]; more than 100 µM in experiment [5]; 45.4 µM in experiment [6]; 53.6 µM in experiment [7]. Besides, the TGI in [8] was more than 100 µM; in experiment [9], more than 100 µM; in experiment [11] it was 55.6 µM; in [12], more than 100 µM; in experiment [13], 36.2 µM; in [17] it was more than 100 µM. Further, the TGI in experiment [14], in experiment [15] and in experiment [16] was more than 100 µM throughout.
